Test results reported in ChEMBL document CHEMBL1201862, “PubChem BioAssay data set” (2004).
Structures can show the parent of a compound that is named as a salt. Activity calls are given as the source filed them.

How the values were obtained:
[1] = target: T1, Voltage-gated N-type calcium channel alpha-1B subunit/Amyloid beta A4 precursor protein-binding family A member 1 (Homo sapiens, UniProt Q00975+Q02410); format: protein assay
BJ [2] = test: cells; format: functional, cell-based; settings: Homo sapiens
[3] = DRD fibroblast viability loss – cell-based, non-viral oncogenic, luminescence, dose response (AID 1934); format: functional; settings: Homo sapiens
BJ [4] = test: BJ-TERT-LT-ST fibroblast viability loss – cell-based, RAS-independent, luminescence, dose response (AID 1935); format: functional; settings: Homo sapiens;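 also: BJ fibroblasts immortalized with TERT plus LT and ST oncogenes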
cells = format: functional, cell-based; settings: HEK-CNG
Streptokinase A = target: T2, Streptokinase A (Streptococcus pyogenes serotype M1, UniProt P10520); test: viability-normalized secreted streptokinase activity reduction – plasminogen activation absorbance, OD405, dose response (AID 1914); format: functional, Streptococcus pyogenes M1 GAS;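 also: secreted streptokinase activity via plasminogen activation per viability signal from cell pellet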
T2 sequence (P10520 whole entry): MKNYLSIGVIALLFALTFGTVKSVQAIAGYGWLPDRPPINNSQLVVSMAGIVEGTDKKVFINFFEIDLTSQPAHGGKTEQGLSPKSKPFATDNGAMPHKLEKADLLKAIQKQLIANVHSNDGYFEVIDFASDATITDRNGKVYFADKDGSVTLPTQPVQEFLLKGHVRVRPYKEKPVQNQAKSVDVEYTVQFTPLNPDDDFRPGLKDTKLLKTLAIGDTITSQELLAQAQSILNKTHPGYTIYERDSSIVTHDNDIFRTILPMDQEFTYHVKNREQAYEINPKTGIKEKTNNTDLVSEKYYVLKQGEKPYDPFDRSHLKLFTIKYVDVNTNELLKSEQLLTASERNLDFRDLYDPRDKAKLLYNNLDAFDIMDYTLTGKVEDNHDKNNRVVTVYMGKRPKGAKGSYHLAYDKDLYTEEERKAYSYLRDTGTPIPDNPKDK

[5] = test system: Streptococcus sp. 'group A'; test: Streptococcus pyogenes SK(-)GAS viability under kanamycin – luminescence, BacTiterGlo, confirmation, counter-screen for streptokinase expression inhibitor project, dose response (AID 1900); format: functional, organism-based
[6] = HEK-293T cell viability reduction – luminescence, B-cell screen hits, cytotoxicity control for BCR NF-kB inhibitor project, dose response (AID 489021); format: functional, cell-based;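 also: HEK-293T cells carrying an NF-kB luciferase reporter; cells exposed to compound for about 14 hours before viability readout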
[7] = Luminescence Cell-Based Dose Retest to Confirm Inhibitors of Cancer Stem Cells. [Related pubchem assays (depositor defined):AID2717, AID2721]; format: functional; settings: Homo sapiens
Galanin receptor type 3 = target: T3, Galanin receptor type 3 (Homo sapiens, UniProt O60755); test: Fluorescence-based cell-based primary high throughput dose response assay to identify antagonists of the Galanin Receptor 3 (GalR3).; format: functional
T3 sequence (O60755 whole entry): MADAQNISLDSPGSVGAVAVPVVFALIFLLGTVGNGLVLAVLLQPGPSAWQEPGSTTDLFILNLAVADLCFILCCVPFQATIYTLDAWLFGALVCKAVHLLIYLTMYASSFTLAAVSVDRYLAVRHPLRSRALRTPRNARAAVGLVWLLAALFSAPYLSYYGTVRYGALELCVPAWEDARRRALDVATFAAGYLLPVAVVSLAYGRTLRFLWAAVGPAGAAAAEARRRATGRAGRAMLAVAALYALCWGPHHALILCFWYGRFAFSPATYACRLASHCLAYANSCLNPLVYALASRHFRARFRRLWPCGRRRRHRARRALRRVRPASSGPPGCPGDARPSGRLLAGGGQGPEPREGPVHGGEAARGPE

[8] = target: T1, Voltage-gated N-type calcium channel alpha-1B subunit/Amyloid beta A4 precursor protein-binding family A member 1; format: protein assay; remark: listed apart in the source
BJ [9] = test: BJ-TERT fibroblast viability loss – cell-based, RAS-independent, luminescence, dose response (AID 1933); format: functional; settings: Homo sapiens
Streptococcus = test: GAS UMAA2166 growth inhibition – luminescence, BacTiterGlo, counter-screen for streptokinase expression inhibitor project, dose response (AID 1915); format: functional, organism-based;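 also: potency for reduction of bacterial viability or growth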
[10] = target: T4, Rac GTPase-activating protein 1 (Homo sapiens, UniProt Q9H0H5); test: blockers of MgcRacGAP-driven Rac1 GTP hydrolysis – biochemical, ADP Hunter fluorescence, primary and confirmatory, confirmation (AID 624330); format: functional
T4 sequence (Q9H0H5 whole entry): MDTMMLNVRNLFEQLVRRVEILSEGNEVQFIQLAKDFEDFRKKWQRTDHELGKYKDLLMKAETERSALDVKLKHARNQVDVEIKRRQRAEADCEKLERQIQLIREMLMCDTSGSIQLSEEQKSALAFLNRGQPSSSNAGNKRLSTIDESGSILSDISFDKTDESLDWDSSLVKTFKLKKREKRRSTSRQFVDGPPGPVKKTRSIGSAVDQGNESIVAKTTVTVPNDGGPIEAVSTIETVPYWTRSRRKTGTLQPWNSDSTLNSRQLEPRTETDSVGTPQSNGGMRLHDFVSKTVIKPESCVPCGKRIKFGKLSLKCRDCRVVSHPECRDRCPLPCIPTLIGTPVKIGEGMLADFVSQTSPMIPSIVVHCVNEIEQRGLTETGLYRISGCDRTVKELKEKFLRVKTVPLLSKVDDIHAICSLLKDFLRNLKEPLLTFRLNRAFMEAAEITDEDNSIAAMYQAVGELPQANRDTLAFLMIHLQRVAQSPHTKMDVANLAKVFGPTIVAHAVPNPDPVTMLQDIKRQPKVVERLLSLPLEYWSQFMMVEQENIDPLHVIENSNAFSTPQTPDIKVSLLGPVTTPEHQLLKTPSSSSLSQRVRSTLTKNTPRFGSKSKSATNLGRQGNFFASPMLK

Bcl-2-related protein A1 = target: T5, Bcl-2-related protein A1 (Mus musculus, UniProt Q07440); format: functional;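 also: confirmatory dose–response counterscreen on Bfl-1, used to check hits from a UBC13 polyubiquitin inhibitor campaign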
T5 sequence (Q07440 whole entry): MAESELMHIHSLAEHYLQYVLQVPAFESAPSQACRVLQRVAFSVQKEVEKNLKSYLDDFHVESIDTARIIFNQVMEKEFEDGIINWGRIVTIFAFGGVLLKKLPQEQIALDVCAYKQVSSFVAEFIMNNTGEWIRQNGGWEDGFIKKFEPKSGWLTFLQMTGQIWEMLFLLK

[11] = target: T6, Ubiquitin-conjugating enzyme E2 N (Homo sapiens, UniProt P61088); format: functional
T6 sequence (P61088 whole entry): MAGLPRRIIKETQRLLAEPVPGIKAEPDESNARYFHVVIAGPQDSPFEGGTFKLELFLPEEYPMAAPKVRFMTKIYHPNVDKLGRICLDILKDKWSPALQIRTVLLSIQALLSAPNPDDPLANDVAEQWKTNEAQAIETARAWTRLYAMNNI

[12] = viability loss in HeLa cells – cytotoxicity control for MgcRacGAP inhibitor project, dose response (AID 624300); format: functional
[13] = target: T6, Ubiquitin-conjugating enzyme E2 N; format: functional; remark: listed apart in the source
[14] = target: T7, Melanin-concentrating hormone receptor 1 (Homo sapiens, UniProt Q99705); test: Fluorescence-based counterscreen for antagonists of the G-protein coupled receptor 7 (GPR7): cell-based high throughput dose response assay to identify antagonists of the melanin-concentrating hormone receptor 1 (MCHR1).; format: functional
[15] = target: T8, Neuropeptides B/W receptor type 1 (Homo sapiens, UniProt P48145); test: Fluorescence-based dose response cell-based high throughput screening assay to identify antagonists of the G-protein coupled receptor 7 (GPR7). [Related pubchem assays: 1952 (Screening assay (GPR7 antagonists).), 1880 (Summary AID.)]; format: functional
T8 sequence (P48145 whole entry): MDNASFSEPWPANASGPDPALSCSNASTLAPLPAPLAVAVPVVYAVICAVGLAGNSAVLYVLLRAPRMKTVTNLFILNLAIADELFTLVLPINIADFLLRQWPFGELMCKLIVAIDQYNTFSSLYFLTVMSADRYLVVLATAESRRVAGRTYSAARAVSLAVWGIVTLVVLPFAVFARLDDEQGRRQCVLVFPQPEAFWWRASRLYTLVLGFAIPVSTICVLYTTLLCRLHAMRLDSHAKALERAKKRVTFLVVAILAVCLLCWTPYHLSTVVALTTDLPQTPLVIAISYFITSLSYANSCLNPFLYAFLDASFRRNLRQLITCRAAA

Trypsin = Trypsin (Sus scrofa, UniProt P00761); test: trypsin protease activity blockade – biochemical, quenched peptide fluorescence, cherry-pick, selectivity assay for Rce1 protease inhibitor project, dose response (AID 488789)
CAAX prenyl protease 2 = target: T9, CAAX prenyl protease 2 (Homo sapiens, UniProt Q9Y256); test: inhibition of Ras-converting CAAX protease Rce1 – biochemical, yeast membranes, quenched-peptide fluorescence, cherry-pick, dose response (AID 588849)
T9 sequence (Q9Y256 whole entry): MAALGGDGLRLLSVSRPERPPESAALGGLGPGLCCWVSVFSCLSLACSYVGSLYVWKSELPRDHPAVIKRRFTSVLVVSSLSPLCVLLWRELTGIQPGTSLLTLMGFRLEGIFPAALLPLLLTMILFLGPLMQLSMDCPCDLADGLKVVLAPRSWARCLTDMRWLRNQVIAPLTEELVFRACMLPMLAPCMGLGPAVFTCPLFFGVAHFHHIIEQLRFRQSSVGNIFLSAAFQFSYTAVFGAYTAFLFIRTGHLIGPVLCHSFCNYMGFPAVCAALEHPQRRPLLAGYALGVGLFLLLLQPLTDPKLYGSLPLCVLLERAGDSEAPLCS

[16] = target: T7, Melanin-concentrating hormone receptor 1; test: Late-stage fluorescence-based counterscreen for antagonists of the G-protein coupled receptor 7 (GPR7): cell-based dose response assay to identify antagonists of the melanin-concentrating hormone receptor 1 (MCHR1). [Related pubchem assays (depositor defined):AID1861, AID1880, AID1952, AID2148, AID2251, AID2257, AID485339]; format: functional
[17] = Counterscreen for antagonists of the orexin 1 receptor (OX1R; HCRTR1): Fluorescence-based cell-based high throughput dose response assay to identify antagonists of the parental CHO cell line. [Related pubchem assays (depositor defined):AID434989, AID435008, AID463079, AID485270, AID492963, AID492964, AID492965, AID493232, AID504699, AID504701]; format: functional
[18] = target: T10, Orexin/Hypocretin receptor type 1 (Homo sapiens, UniProt O43613); test: Homogeneous Time Resolved Fluorescence (HTRF)-based cell-based high throughput dose response assay for antagonists of the orexin 1 receptor (OX1R; HCRTR1). [Related pubchem assays (depositor defined):AID434989, AID435008, AID463079, AID485270, AID492963, AID492964, AID492965, AID493232, AID504717, AID504718]; format: functional
T10 sequence (O43613 whole entry): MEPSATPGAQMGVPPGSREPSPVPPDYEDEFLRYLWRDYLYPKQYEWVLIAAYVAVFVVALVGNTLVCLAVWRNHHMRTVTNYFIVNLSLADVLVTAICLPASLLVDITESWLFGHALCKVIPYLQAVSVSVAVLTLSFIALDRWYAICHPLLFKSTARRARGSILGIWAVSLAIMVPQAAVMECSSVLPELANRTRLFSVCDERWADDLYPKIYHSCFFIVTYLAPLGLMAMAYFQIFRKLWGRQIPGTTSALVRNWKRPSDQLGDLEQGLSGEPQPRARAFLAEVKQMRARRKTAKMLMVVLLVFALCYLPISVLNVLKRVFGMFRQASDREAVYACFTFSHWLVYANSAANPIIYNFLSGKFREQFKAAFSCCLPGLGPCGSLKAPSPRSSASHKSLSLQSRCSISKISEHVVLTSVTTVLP

CHO-K1 = test: Counterscreen for antagonists of the orexin 1 receptor (OX1R; HCRTR1): Homogeneous time resolved fluorescence (HTRF)-based cell-based dose response assay to identify antagonists of the parental CHO-K1 cell line. [Related pubchem assays (depositor defined):AID434989, AID435008, AID463079, AID485270, AID492963, AID492964, AID492965, AID493232, AID504699, AID504701]; format: functional; settings: Cricetulus griseus;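 also: potency for inhibition of ATP-stimulated IP1 production as antagonists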
[19] = target: T10, Orexin/Hypocretin receptor type 1; test: Fluorescence-based cell-based high throughput dose response assay for antagonists of the orexin 1 receptor (OX1R; HCRTR1). [Related pubchem assays (depositor defined):AID434989, AID435008, AID463079, AID485270, AID492963, AID492964, AID492965, AID493232, AID504717, AID504718]; format: functional

T7 sequence (Q99705 whole entry): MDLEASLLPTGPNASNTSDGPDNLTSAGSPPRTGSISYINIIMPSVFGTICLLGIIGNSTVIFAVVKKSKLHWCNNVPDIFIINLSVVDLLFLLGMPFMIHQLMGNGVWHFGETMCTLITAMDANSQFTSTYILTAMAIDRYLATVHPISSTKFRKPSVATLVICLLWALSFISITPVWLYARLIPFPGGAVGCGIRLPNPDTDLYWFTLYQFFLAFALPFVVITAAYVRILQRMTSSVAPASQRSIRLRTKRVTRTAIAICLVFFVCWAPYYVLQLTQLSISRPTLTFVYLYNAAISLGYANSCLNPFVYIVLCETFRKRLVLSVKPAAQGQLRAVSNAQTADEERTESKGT
T1 sequence (Q00975 whole entry): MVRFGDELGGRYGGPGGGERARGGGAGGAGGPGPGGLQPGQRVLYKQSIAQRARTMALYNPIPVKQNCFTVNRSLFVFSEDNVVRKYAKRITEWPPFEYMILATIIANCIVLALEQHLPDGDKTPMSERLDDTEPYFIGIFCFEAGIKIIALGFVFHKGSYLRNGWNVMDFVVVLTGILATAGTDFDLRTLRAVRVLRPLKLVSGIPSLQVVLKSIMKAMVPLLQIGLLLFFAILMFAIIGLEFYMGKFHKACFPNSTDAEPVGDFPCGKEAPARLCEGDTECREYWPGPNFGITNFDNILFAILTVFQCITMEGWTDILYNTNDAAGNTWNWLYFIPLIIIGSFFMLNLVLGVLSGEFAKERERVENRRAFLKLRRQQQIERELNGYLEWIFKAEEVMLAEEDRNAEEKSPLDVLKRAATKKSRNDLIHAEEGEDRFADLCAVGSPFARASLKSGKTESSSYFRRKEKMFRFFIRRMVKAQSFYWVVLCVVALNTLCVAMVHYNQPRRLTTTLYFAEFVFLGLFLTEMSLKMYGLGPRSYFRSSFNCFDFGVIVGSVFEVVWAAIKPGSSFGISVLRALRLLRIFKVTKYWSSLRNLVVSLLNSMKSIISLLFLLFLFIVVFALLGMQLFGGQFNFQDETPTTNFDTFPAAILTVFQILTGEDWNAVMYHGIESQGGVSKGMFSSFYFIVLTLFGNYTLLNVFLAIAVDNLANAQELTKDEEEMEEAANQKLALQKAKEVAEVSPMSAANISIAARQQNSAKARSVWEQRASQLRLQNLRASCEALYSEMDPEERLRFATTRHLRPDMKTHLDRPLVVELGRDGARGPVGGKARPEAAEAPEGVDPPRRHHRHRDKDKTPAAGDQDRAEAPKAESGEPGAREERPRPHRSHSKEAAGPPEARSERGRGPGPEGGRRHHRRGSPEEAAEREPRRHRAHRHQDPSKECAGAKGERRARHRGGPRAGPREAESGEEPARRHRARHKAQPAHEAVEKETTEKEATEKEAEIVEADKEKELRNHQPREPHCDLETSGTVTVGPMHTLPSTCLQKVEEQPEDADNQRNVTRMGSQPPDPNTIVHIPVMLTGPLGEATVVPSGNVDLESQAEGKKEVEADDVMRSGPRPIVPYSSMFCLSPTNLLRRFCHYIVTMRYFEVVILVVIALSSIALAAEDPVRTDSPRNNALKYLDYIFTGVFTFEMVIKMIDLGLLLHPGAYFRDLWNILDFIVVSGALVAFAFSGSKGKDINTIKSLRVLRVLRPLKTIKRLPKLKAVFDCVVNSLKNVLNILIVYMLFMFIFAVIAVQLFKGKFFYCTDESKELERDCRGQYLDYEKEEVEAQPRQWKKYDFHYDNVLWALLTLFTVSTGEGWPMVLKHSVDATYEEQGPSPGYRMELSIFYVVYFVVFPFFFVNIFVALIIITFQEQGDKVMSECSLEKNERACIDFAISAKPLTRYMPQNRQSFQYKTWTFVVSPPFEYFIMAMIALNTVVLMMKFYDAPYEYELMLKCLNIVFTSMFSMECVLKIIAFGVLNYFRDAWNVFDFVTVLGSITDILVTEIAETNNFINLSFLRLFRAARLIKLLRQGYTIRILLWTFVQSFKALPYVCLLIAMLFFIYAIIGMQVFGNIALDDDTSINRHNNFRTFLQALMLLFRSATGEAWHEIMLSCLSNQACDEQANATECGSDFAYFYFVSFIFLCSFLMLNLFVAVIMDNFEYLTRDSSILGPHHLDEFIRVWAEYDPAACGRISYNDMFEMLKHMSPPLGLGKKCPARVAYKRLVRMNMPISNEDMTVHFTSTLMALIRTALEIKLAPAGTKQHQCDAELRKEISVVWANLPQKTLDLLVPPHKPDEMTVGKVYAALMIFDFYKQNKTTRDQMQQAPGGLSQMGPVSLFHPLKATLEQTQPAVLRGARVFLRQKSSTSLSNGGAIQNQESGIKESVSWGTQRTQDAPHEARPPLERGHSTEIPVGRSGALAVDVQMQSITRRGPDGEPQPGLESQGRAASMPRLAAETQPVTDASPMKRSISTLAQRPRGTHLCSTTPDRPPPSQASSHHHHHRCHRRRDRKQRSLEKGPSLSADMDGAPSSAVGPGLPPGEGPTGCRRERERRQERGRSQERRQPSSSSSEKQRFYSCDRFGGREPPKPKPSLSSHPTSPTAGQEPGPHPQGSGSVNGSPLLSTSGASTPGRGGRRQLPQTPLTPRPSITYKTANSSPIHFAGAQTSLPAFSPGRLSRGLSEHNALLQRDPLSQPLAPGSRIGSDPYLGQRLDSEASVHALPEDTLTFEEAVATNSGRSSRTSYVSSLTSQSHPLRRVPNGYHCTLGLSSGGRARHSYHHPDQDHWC
T1 sequence (Q02410 whole entry): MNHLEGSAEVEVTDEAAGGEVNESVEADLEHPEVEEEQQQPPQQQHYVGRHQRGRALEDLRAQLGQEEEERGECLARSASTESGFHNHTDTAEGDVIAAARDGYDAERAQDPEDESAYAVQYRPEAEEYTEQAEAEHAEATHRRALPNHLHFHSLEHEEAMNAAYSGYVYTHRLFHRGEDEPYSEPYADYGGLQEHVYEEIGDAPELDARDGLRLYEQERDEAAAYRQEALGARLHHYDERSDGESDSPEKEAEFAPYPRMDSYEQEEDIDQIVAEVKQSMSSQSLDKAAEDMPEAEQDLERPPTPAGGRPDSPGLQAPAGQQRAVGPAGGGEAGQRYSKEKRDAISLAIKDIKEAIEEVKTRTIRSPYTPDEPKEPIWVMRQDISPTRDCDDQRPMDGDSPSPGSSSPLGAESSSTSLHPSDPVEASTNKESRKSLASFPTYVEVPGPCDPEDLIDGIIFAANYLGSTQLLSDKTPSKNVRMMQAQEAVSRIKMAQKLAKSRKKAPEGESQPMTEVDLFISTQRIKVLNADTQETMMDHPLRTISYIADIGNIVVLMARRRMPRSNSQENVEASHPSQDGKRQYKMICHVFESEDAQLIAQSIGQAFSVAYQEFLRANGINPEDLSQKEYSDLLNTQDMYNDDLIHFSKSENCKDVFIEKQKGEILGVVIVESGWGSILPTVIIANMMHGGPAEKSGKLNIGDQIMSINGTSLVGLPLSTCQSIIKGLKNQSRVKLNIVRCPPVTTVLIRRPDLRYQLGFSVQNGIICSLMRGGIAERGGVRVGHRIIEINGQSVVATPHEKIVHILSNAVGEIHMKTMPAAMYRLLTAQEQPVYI
Sequence of Trypsin (P00761 whole entry): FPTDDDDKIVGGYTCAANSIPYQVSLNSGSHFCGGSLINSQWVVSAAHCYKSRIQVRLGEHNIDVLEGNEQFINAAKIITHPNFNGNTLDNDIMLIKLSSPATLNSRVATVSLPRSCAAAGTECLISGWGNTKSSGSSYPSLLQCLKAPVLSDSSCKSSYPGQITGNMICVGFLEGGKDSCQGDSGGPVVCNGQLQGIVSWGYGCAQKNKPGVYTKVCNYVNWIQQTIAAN

Cc1ccccc1-c1cc(C(=O)Nc2sc(C(=O)OC(C)C)c(C)c2C#N)c2ccccc2n1
IC50 [1]: 17.9 µM (active) | EC50 (BJ [2]): > 150 µM (inconclusive) | EC50 [3]: 42.3 µM (active) | EC50 (BJ [4]): > 75 µM (inconclusive) | EC50 (cells): > 29.9 µM (inactive) | EC50 (Streptokinase A): > 150 µM (not active) | EC50 [5]: 14.6 µM (active) | IC50 [6]: 45.6 µM (inactive) | AC50 [7]: 0.246 µM (active) | IC50 (Galanin receptor type 3): 0.967 µM (active) | IC50 [8]: > 50 µM (inactive) | EC50 (BJ [9]): > 150 µM (not active) | EC50 (Streptococcus): 26 µM (active)

O=C(c1ccc(OCCN2CCCCC2)cc1)c1c(-c2ccc(O)cc2)sc2cc(O)ccc12 [RALOXIFENE HYDROCHLORIDE]
IC50 [10]: 27.8 µM (active) | IC50 (Bcl-2-related protein A1): > 20 µM (inactive) | IC50 [11]: 17.5 µM (active) | CC50 [12]: 99.6 µM (active) | AC50 [7]: 1.75 µM (active) | IC50 [13]: 14.2 µM (active)

Cc1ccc(C(=O)CSc2nnc(COc3ccccc3)o2)cc1
IC50 [6]: > 80 µM (inactive)

Cc1ccccc1NC(=O)C1CCCN(c2ncnc3onc(-c4ccc(F)cc4)c23)C1 (stereo not drawn)
IC50 [14]: > 43.8 µM (not active) | IC50 [15]: > 43.8 µM (not active)

CCOc1cc(-c2nc3c(C)cccn3c2NCC2CCCO2)ccc1O.CNC (stereo not drawn)
AC50 (Trypsin): 12.7 µM (active) | AC50 (CAAX prenyl protease 2): 15.1 µM (active)

COc1ccc(Oc2c(-c3cccs3)cnn(-c3ccc(C)cc3)c2=O)cc1
IC50 [16]: > 20 µM (inactive)

CN(Cc1c(C(=O)N/N=C/c2cccc(O)c2)nnn1-c1nonc1N)c1ccccc1
IC50 [17]: 24.2 µM (inactive) | IC50 [18]: 1.04 µM (active) | IC50 (CHO-K1): > 66.2 µM (inactive) | IC50 [19]: 5.74 µM (active)

Cc1ccc(S(=O)(=O)Nc2ccc3c(c2)n(C)c(=O)n3C)cc1
IC50 [6]: > 80 µM (inactive)

Cc1ccc(CN2C(=O)c3ccccc3Sc3ccc(C(=O)NCCCN4CCOCC4)cc32)cc1
IC50 [14]: 10.4 µM (not active) | IC50 [15]: 6.89 µM (active)

COc1ccc(Oc2c(Cl)cnn(-c3ccc(C(C)(C)C)cc3)c2=O)cc1
IC50 [16]: 2.7 µM (active)
